Laboratory results published in patent US20160108049A1 (TAKEDA Gmbh, priority 2011, published 2016).

Tests used:
[1] = target: T1, PDE4B1 (Homo sapiens, UniProt Q07343); test: Inhibition of PDE4 activity (PDE4B1, SPA assay); assay type: biochemical; conditions: recombinant PDE4B1, 0.5 μM cAMP; read-out: PDE4B1 Inhibitory values measured as -logIC50 (converted)
T1 construct: made in house; host or cells: SF21 insect cells (baculovirus; virus made in SF9 cells, pCR-Bac vector)
Outline: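 Read-out is SPA yttrium silicate bead scintillation after IBMX-containing beads stop the reaction. Insect-cell (SF21) lysate enzyme hydrolysed 0.5 μM [3H]cAMP at pH 7.4 with 5 mM Mg2+ for 15 min after a 5 min 37 °C preincubation; IC50 fitted by non-linear regression.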

[2] = target: T2, human PDE5 (Homo sapiens, UniProt O76074); test: Inhibition of PDE5 activity (platelet lysate, SPA assay); assay type: biochemical; conditions: 0.5 μM cGMP, read-out: PDE5 Inhibitory values measured as -logIC50 (converted)
T2 construct: from tissue; host or cells: human platelets from fresh donor blood (platelet lysate)
Outline: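 SPA readout of [3H]cGMP hydrolysis (0.5 μM, 15 min, 37 °C after 5 min preincubation), stopped with yttrium silicate beads containing IBMX. Enzyme was lysate from human platelets, used at 10–20% substrate turnover, with PDE3 (motapizone 1 μM) and PDE2 (10 nM) blockers present. IC50 values fitted non-linearly from concentration-effect curves.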

T1 sequence (Q07343 whole entry): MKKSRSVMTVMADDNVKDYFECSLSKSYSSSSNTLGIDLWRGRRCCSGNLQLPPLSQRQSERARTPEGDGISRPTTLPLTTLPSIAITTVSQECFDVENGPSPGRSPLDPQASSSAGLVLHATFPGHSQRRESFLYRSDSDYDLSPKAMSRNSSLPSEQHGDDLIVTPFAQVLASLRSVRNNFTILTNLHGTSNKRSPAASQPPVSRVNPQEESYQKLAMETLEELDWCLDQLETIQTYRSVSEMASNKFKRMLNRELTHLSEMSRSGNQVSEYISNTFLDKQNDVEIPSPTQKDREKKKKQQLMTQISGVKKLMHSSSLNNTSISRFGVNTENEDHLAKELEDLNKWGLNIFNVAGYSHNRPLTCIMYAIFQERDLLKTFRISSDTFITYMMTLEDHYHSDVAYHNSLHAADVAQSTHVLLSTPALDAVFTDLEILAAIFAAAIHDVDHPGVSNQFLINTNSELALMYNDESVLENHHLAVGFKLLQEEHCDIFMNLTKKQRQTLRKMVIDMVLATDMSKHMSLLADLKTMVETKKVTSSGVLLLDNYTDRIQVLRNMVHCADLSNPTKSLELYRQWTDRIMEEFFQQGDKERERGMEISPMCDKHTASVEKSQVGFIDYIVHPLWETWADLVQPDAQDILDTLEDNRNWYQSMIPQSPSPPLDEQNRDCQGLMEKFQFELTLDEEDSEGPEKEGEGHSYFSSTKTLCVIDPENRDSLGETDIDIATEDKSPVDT

| IC50 [1] | IC50 [2] | SMILES |
| --- | --- | --- |
| > 10 nM | 1 to 10 nM | COc1ccc(C2=NN(C3CCN(C(=O)[C@H](Cc4ccccc4)NC(=O)c4c[nH]c5c(-c6c(OCC7CC7)ccc7c6OCO7)ncnc45)CC3)C(=O)[C@H]3CCCC[C@@H]23)cc1OC [Example 44, 4-[5-(cyclopropylmethoxy)-1,3-benzodioxol-4-yl]-N-[(2S)-1-{4-[(4aR,8aS)-4-(3,4-dimethoxyphenyl)-1-oxo-4a,5,6,7,8,8a-hexahydrophthalazin-2(1H)-yl]piperidin-1-yl}-1-oxo-3-phenylpropan-2-yl]-5H-pyrrolo[3,2-d]pyrimidine-7-carboxamide] |
| 1 to 10 nM | < 1 nM | COc1cc(OCC2CC2)c(-c2ncnc3c(C(=O)N[C@@H](CCC(=O)N4CCCCC4)C(=O)N4CCC(N5N=C(c6ccc(OC)c(OC)c6)[C@H]6CCCC[C@H]6C5=O)CC4)c(C)[nH]c23)cc1F [Example 84, 4-[2-(cyclopropylmethoxy)-5-fluoro-4-methoxyphenyl]-N-[(2S)-1-{4-[(4aS,8aR)-4-(3,4-dimethoxyphenyl)-1-oxo-4a,5,6,7,8,8a-hexahydrophthalazin-2(1H)-yl]piperidin-1-yl}-1,5-dioxo-5-(piperidin-1-yl)pentan-2-yl]-6-methyl-5H-pyrrolo[3,2-d]pyrimidine-7-carboxamide] |
| 1 to 10 nM | 1 to 10 nM | COc1cc(OCC2CC2)c(-c2ncnc3c(C(=O)N[C@@H](C(=O)N4CCC(N5N=C(c6ccc(OC)c(OC)c6)[C@H]6CCCC[C@H]6C5=O)CC4)[C@H](C)c4ccccc4)c(C)[nH]c23)cc1F [Example 37, 4-[2-(cyclopropylmethoxy)-5-fluoro-4-methoxyphenyl]-N-[(2R,3R)-1-{4-[(4aS,8aR)-4-(3,4-dimethoxyphenyl)-1-oxo-4a,5,6,7,8,8a-hexahydrophthalazin-2(1H)-yl]piperidin-1-yl}-1-oxo-3-phenylbutan-2-yl]-6-methyl-5H-pyrrolo[3,2-d]pyrimidine-7-carboxamide] |
| 1 to 10 nM | 1 to 10 nM | COc1ccc(C2=NN(C3CCN(C(=O)[C@@H](C)NC(=O)c4c[nH]c5c(-c6c(OCC7CC7)ccc7c6OCO7)ncnc45)CC3)C(=O)C(C)(C)C2)cc1OC [Example 111, 4-[5-(cyclopropylmethoxy)-1,3-benzodioxol-4-yl]-N-[(2R)-1-{4-[3-(3,4-dimethoxyphenyl)-5,5-dimethyl-6-oxo-5,6-dihydropyridazin-1(4H)-yl]piperidin-1-yl}-1-oxopropan-2-yl]-5H-pyrrolo[3,2-d]pyrimidine-7-carboxamide] |
| 1 to 10 nM | 1 to 10 nM | COc1ccc(C[C@H](NC(=O)c2c[nH]c3c(-c4c(OCC5CC5)ccc5c4OCO5)ncnc23)C(=O)N2CCC(N3N=C(c4ccc(OC)c(OC)c4)[C@H]4CCCC[C@H]4C3=O)CC2)cc1OC [Example 25, 4-[5-(cyclopropylmethoxy)-1,3-benzodioxol-4-yl]-N-[(2S)-3-(3,4-dimethoxyphenyl)-1-{4-[(4aS,8aR)-4-(3,4-dimethoxyphenyl)-1-oxo-4a,5,6,7,8,8a-hexahydrophthalazin-2(1H)-yl]piperidin-1-yl}-1-oxopropan-2-yl]-5H-pyrrolo[3,2-d]pyrimidine-7-carboxamide] |
| 1 to 10 nM | 1 to 10 nM | COc1ccc(C2=NN(C3CCN(C(=O)[C@@H](CN(C)C)NC(=O)c4c[nH]c5c(-c6c(OCC7CC7)ccc7c6OCO7)ncnc45)CC3)C(=O)[C@@H]3CCCC[C@H]23)cc1OC [Example 96, 4-[5-(cyclopropylmethoxy)-1,3-benzodioxol-4-yl]-N-[(2R)-1-{4-[(4aS,8aR)-4-(3,4-dimethoxyphenyl)-1-oxo-4a,5,6,7,8,8a-hexahydrophthalazin-2(1H)-yl]piperidin-1-yl}-3-(dimethylamino)-1-oxopropan-2-yl]-5H-pyrrolo[3,2-d]pyrimidine-7-carboxamide] |
| < 1 nM | 1 to 10 nM | COc1ccc(C2=NN(C3CCN(C(=O)[C@H](Cc4cccc(C)c4)NC(=O)c4c[nH]c5c(-c6c(OCC7CC7)ccc7c6OCO7)ncnc45)CC3)C(=O)[C@@H]3CCCC[C@H]23)cc1OC [Example 3, 4-[5-(cyclopropylmethoxy)-1,3-benzodioxol-4-yl]-N-[(2S)-1-{4-[(4aS,8aR)-4-(3,4-dimethoxyphenyl)-1-oxo-4a,5,6,7,8,8a-hexahydrophthalazin-2(1H)-yl]piperidin-1-yl}-3-(3-methylphenyl)-1-oxopropan-2-yl]-5H-pyrrolo[3,2-d]pyrimidine-7-carboxamide] |
| 1 to 10 nM | 1 to 10 nM | COc1ccc(C2=NN(C3CCN(C(=O)[C@@H](NC(=O)c4c[nH]c5c(-c6c(OCC7CC7)ccc7c6OCO7)ncnc45)C4CCCCC4)CC3)C(=O)[C@@H]3CCCC[C@H]23)cc1OC [Example 73, N-[(1S)-1-cyclohexyl-2-{4-[(4aS,8aR)-4-(3,4-dimethoxyphenyl)-1-oxo-4a,5,6,7,8,8a-hexahydrophthalazin-2(1H)-yl]piperidin-1-yl}-2-oxoethyl]-4-[5-(cyclopropylmethoxy)-1,3-benzodioxol-4-yl]-5H-pyrrolo[3,2-d]pyrimidine-7-carboxamide] |
| < 1 nM | < 1 nM | CC[C@H](NC(=O)c1c(C)[nH]c2c(-c3c(OCC4CC4)ccc4c3OCO4)ncnc12)C(=O)N1CCC(N2N=C(c3ccc(OC)c(OC)c3)[C@H]3CCCC[C@H]3C2=O)CC1 [Example 64, 4-[5-(cyclopropylmethoxy)-1,3-benzodioxol-4-yl]-N-[(2S)-1-{4-[(4aS,8aR)-4-(3,4-dimethoxyphenyl)-1-oxo-4a,5,6,7,8,8a-hexahydrophthalazin-2(1H)-yl]piperidin-1-yl}-1-oxobutan-2-yl]-6-methyl-5H-pyrrolo[3,2-d]pyrimidine-7-carboxamide] |
| < 1 nM | < 1 nM | COc1ccc(C2=NN(C3CCN(C(=O)[C@@H](Cc4ccccc4Cl)NC(=O)c4c[nH]c5c(-c6c(OCC7CC7)ccc7c6OCO7)ncnc45)CC3)C(=O)[C@@H]3CCCC[C@H]23)cc1OC [Example 35, N-[(2R)-3-(2-chlorophenyl)-1-{4-[(4aS,8aR)-4-(3,4-dimethoxyphenyl)-1-oxo-4a,5,6,7,8,8a-hexahydrophthalazin-2(1H)-yl]piperidin-1-yl}-1-oxopropan-2-yl]-4-[5-(cyclopropylmethoxy)-1,3-benzodioxol-4-yl]-5H-pyrrolo[3,2-d]pyrimidine-7-carboxamide] |
| < 1 nM | < 1 nM | COc1ccc(C2=NN(C3CCN(C(=O)[C@@H](Cc4c[nH]cn4)NC(=O)c4c[nH]c5c(-c6c(OCC7CC7)ccc7c6OCO7)ncnc45)CC3)C(=O)[C@@H]3CCCC[C@H]23)cc1OC [Example 89, 4-[5-(cyclopropylmethoxy)-1,3-benzodioxol-4-yl]-N-[(2R)-1-{4-[(4aS,8aR)-4-(3,4-dimethoxyphenyl)-1-oxo-4a,5,6,7,8,8a-hexahydrophthalazin-2(1H)-yl]piperidin-1-yl}-3-(1H-imidazol-4-yl)-1-oxopropan-2-yl]-5H-pyrrolo[3,2-d]pyrimidine-7-carboxamide] |
| 1 to 10 nM | < 1 nM | COc1ccc(C2=NN(C3CCN(C(=O)[C@H](CCC(=O)N4CCCCC4)NC(=O)c4c(C)[nH]c5c(-c6c(OCC7CC7)ccc7c6OCO7)ncnc45)CC3)C(=O)[C@@H]3CCCC[C@H]23)cc1OC [Example 83, 4-[5-(cyclopropylmethoxy)-1,3-benzodioxol-4-yl]-N-[(2S)-1-{4-[(4aS,8aR)-4-(3,4-dimethoxyphenyl)-1-oxo-4a,5,6,7,8,8a-hexahydrophthalazin-2(1H)-yl]piperidin-1-yl}-1,5-dioxo-5-(piperidin-1-yl)pentan-2-yl]-6-methyl-5H-pyrrolo[3,2-d]pyrimidine-7-carboxamide] |
| 1 to 10 nM | < 1 nM | COc1ccc(C[C@@H](NC(=O)c2c[nH]c3c(-c4c(OCC5CC5)ccc5c4OCO5)ncnc23)C(=O)N2CCC(N3N=C(c4ccc(OC)c(OC)c4)[C@H]4CCCC[C@H]4C3=O)CC2)cc1 [Example 29, 4-[5-(cyclopropylmethoxy)-1,3-benzodioxol-4-yl]-N-[(2R)-1-{4-[(4aS,8aR)-4-(3,4-dimethoxyphenyl)-1-oxo-4a,5,6,7,8,8a-hexahydrophthalazin-2(1H)-yl]piperidin-1-yl}-3-(4-methoxyphenyl)-1-oxopropan-2-yl]-5H-pyrrolo[3,2-d]pyrimidine-7-carboxamide] |
| 1 to 10 nM | 1 to 10 nM | COc1ccc(C2=NN(C3CCN(C(=O)CCNC(=O)c4c[nH]c5c(-c6c(OCC7CC7)ccc7c6OCO7)ncnc45)CC3)C(=O)[C@@H]3CCCC[C@H]23)cc1OC [Example 76, 4-[5-(cyclopropylmethoxy)-1,3-benzodioxol-4-yl]-N-(3-{4-[(4aS,8aR)-4-(3,4-dimethoxyphenyl)-1-oxo-4a,5,6,7,8,8a-hexahydrophthalazin-2(1H)-yl]piperidin-1-yl}-3-oxopropyl)-5H-pyrrolo[3,2-d]pyrimidine-7-carboxamide] |
| 1 to 10 nM | 1 to 10 nM | COc1ccc(C2=NN(C3CCN(C(=O)[C@@H](Cc4ccccc4)NC(=O)c4c(C)[nH]c5c(-c6c(OCC7CC7)ccc7c6OCO7)ncnc45)CC3)C(=O)C3(CCCC3)C2)cc1OC [Example 124, 4-[5-(cyclopropylmethoxy)-1,3-benzodioxol-4-yl]-N-[(2R)-1-{4-[9-(3,4-dimethoxyphenyl)-6-oxo-7,8-diazaspiro[4.5]dec-8-en-7-yl]piperidin-1-yl}-1-oxo-3-phenylpropan-2-yl]-6-methyl-5H-pyrrolo[3,2-d]pyrimidine-7-carboxamide] |
